From US9017713B2, “Magnetic carrier and medical preparation for controllable delivery and release of active substances, methods of their production and methods of treatment using thereof” (priority 2006, dated 2015)

How the values were obtained:
[1] = F 127 ferrofluid gel, constant magnetic field; cited from earlier work
[2] = Desorption of pharmaceutical from heat-sensitive polymer film on magnetic carrier by cooling below LCST; type: physicochemical; details: Fe0.49Rh0.51 plates with graphite layer, film of copolymer NIPAAm with 35 mol % tBuAM; cooled below LCST to 15.9° C.
Experimental: The method may be realized, for example, as follows: quenched magnetic material Fe0.49Rh0.51 covered with a heat-sensitive polymer together with a pharmaceutical (for example, anti-inflammatory) in the form of particles in of about 150-200 nm is administered inside of an organism through a catheter and delivery of the aforementioned particles is performed to a target organ or a tissue. Magnetic field of 2 T is applied on the area, where the particles are concentrated. The magnetic material is cooled by 13° C., which results in refrigerating of a heat-sensitive polymer, for example (co)polymer N-iso-propyl acrylamide, down to temperature below LCST, in this case down to 24° C., and desorption of the pharmaceutical from the surface of heat-sensitive polymer takes place.
A procedure analogous to that described in Example 4, but administration of a pharmaceutical Adriablastin in an organism is made, when the magnetic carrier represents alloy of iron-rhodium Fe0.49Rh0.51, which surface is covered with copolymer NIPAAm with 35 mol % of tBuAM film, with alloy surface preliminary covered with a thin protective graphite layer (preventing oxidation); the magnetic material is prepared in the form of plates. […]

Row | Time of desorption [2] [min] | Molecule | Increase of release after application of magnetic field to the gel [1] [%]
1 | – | vitamin B12 | 20
2 | 30 ± 5 | COc1cccc2c1C(=O)c1c(O)c3c(c(O)c1C2=O)C[C@@](O)(C(=O)CO)C[C@@H]3O[C@H]1C[C@H](N)[C@H](O)[C@H](C)O1 [Adriablastin] | –
